Data from US20110229571A1, “Pharmaceutical Compositions Comprising a Selective I1 Imidazoline Receptor Agonist and an Angiotensin II Receptor Blocker” (Abbott Products GmbH, priority 2003, published 2011).

How the values were obtained:
[1] = test system: 2K1C (two-kidney one-clip) hypertensive rats; test: Blood pressure and heart rate (tail cuff) of two-kidney one-clip renal hypertensive rats after oral treatment; assay type: in vivo, rat; conditions: for diastolic blood pressure (DBP) / mean blood pressure (MBP) / systolic blood pressure (SBP) / heart rate: Mox 1 mg/kg, Epro 3 mg/kg or both; for diastolic blood pressure (DBP) / mean blood pressure (MBP) / systolic blood pressure (SBP): mean ± SE of 12 animals; for heart rate: n 12; for maximal decrease in the diastolic blood pressure / maximal decrease in the systolic blood pressure: maximal effect 2 hours after oral administration, moxonidine 1 mg/kg or eprosartan 3 mg/kg; for effect on blood pressure (in words): oral, moxonidine 1 mg/kg, eprosartan 3 mg/kg or both
Description: The “two-kidney one-clip” technique results in renal ischemia and in the development of hypertension. In the rat, this technique produces chronic changes, similar to those in human beings with unilateral renal artery stenosis. 2K1C rats represent a pressure overload model of hypertension, characterized by the activation of the renin-angiotensin aldosterone system (RAAS) and peripheral vasoconstriction. This model is widely used as a high renin model of hypertension for the evaluation of angiotensin converting enzyme (ACE) inhibitors and angiotensin receptor antagonists (ARBs). Animals: Male Sprague-Dawley CFY rats were used. Animals were fed commercial laboratory rat food pellet and allowed to drink tap water ad libitum throughout the experiments. Two-kidney one-clip hypertension: Under ether anesthesia an incision was made on the right side of the dorsalvertebrocostal angle. After light exterioration of the right kidney a silver clip was placed on the renal artery, close to its origin from the aorta. The left kidney was not disturbed. Measurement of blood pressure and heart rate: Blood pressure and heart rate were measured by the tail cuff method (Model 229, IITC Inc., CA, USA) from the 1st week after clipping the renal artery, once a week for 6 weeks. At the time of blood pressure measurements the animals were minimally warmed to an ambient temperature of 29° C. using a thermostated warming chamber. Experimental protocol: Animals developing stable hypertension during the 6-week-study period were used for the drug treatments. 12 animals with established hypertension were used for each treatment group as follows: • Vehicle • Moxonidine 1 mg/kg • Eprosartan 3 mg/kg • Moxonidine 1 mg/kg+Eprosartan 3 mg/kg The animals were treated orally and the blood pressure was measured 30 min, 1 h, 2 h and 4 hours there after. Different treatments were applied randomly during the day. Statistical analysis: Parameters were expressed as mean±standard error of the mean (SE) and after analysis of variance were compared by means of the modified ‘t’-statistical method of Wallenstein et al. [Wallenstein S et al. (1980) Circ. Res. 47:1-9].

[2] = test system: Zucker rats; test: Oral glucose tolerance test in Zucker rats after 3 weeks of treatment; assay type: in vivo, rat
Description: The effect of a combined administration of Moxonidine as an example for a selective Imidazoline I1 receptor agonist and Eprosartan as an example for an Angiotensin II At1 receptor antagonist was analyzed by measuring their influence on plasma glucose level in “Zucker rats”. The “Zucker rat” is a model of impaired glucose tolerance and is widely used to analyze compound effects on glucose tolerance. Animals: Male Zucker rats (HsdOla fa/fa) from Harlan were used in the experiments. The animals were fed commercial lab chow and had unlimited access to tap water throughout the experiment. Experimental protocol: Animals were treated for 3 weeks with either vehicle or the active compounds. Moxonidine was applied via the drinking water. Eprosartan was administered daily into the stomach via a cannula. Ten animals were used in each of the following treatment groups: • Vehicle • Moxonidine 1 mg/kg • Moxonidine 1 mg/kg+Eprosartan 3 mg/kg • Moxonidine 1 mg/kg+Eprosartan 30 mg/kg • Moxonidine 1 mg/kg+Eprosartan 100 mg/kg At the end of the drug treatment period the animals were subjected to an oral glucose tolerance test. Animals were given a solution containing 2 g glucose via a cannula into the stomach. Blood samples were drawn before and at 30, 60, 90, and 120 minutes after the glucose load by tail vein cannulation and analyzed for plasma glucose levels. Statistical analysis: Parameters were expressed as mean±standard error of the mean (SE) and after analysis of variance were compared by means of T-Test.

[3] = 30 min after oral administration

**Q.** With `CCCCc1ncc(/C=C(\Cc2cccs2)C(=O)O)n1Cc1ccc(C(=O)O)cc1` [Eprosartan] as the compound, how does the “diastolic blood pressure (DBP)” value [1, 3] read?
**A.** Its value is 111 ± 2.8 mmHg.

**Q.** And the “mean blood pressure (MBP)” value [1, 3]?
**A.** The value was 117 ± 2.8 mmHg.

**Q.** And the “systolic blood pressure (SBP)” value [1, 3]?
**A.** The value was 131 ± 2.8 mmHg.

**Q.** What about the heart rate [1, 3] of the same compound?
**A.** The heart rate was 370 ± 6.9 beats/min.

**Q.** And the “diastolic blood pressure (DBP)” value ([1]; 1 h after oral administration)?
**A.** The value was 109 ± 2.3 mmHg.

**Q.** What about the “mean blood pressure (MBP)” value ([1]; 1 h after oral administration) of the same compound?
**A.** The value was 116 ± 2.5 mmHg.

**Q.** What about the “systolic blood pressure (SBP)” value ([1]; 1 h after oral administration) of the same compound?
**A.** The value was 131 ± 3.1 mmHg.

**Q.** What about the heart rate ([1]; 1 h after oral administration) of the same compound?
**A.** The heart rate was 375 ± 7.4 beats/min.

**Q.** What about the “diastolic blood pressure (DBP)” value ([1]; 2 h after oral administration) of the same compound?
**A.** Its value is 98 ± 4.8 mmHg.

**Q.** What about the “mean blood pressure (MBP)” value ([1]; 2 h after oral administration) of the same compound?
**A.** Its value is 105 ± 4.6 mmHg.

**Q.** And the “systolic blood pressure (SBP)” value ([1]; 2 h after oral administration)?
**A.** Its value is 119 ± 4.5 mmHg.

**Q.** What about the heart rate ([1]; 2 h after oral administration) of the same compound?
**A.** Its heart rate is 378 ± 4.3 beats/min.

**Q.** And the “diastolic blood pressure (DBP)” value ([1]; 4 h after oral administration)?
**A.** The value was 106 ± 6.6 mmHg.

**Q.** And the “mean blood pressure (MBP)” value ([1]; 4 h after oral administration)?
**A.** Its value is 112 ± 6.6 mmHg.

**Q.** And the “systolic blood pressure (SBP)” value ([1]; 4 h after oral administration)?
**A.** Its value is 125 ± 6.1 mmHg.

**Q.** And the heart rate ([1]; 4 h after oral administration)?
**A.** Its heart rate is 376 ± 5.2 beats/min.

**Q.** And the “maximal decrease in the diastolic blood pressure” value [1]?
**A.** The value was 21%.

**Q.** And the “maximal decrease in the systolic blood pressure” value [1]?
**A.** Its value is 19%.

**Q.** And the “effect on blood pressure (in words)” value [1]?
**A.** Its value is “significantly decreased the blood pressure”.

**Q.** Which results are given for `COc1nc(C)nc(Cl)c1NC1=NCCN1` [Moxonidine, 4-Chloro-5-[(4,5-dihydro-1H-imidazol-2-yl)-amino]-6-methoxy-2-methylpyrimidine]?
**A.** plasma glucose level ([2]; 0 min (before glucose challenge), 1 mg/kg Mox, mean ± SE of 10 animals): 97 ± 6 mg/dL; plasma glucose AUC (area under the curve) ([2]; 0-120 min after glucose challenge, 1 mg/kg Mox): 24960 ± 1268 mg·min/dL; plasma glucose level ([2]; 30 min after glucose challenge, 1 mg/kg Mox): 240 ± 15 mg/dL; plasma glucose level ([2]; 60 min after glucose challenge, 1 mg/kg Mox): 211 ± 15 mg/dL; plasma glucose level ([2]; 90 min after glucose challenge, 1 mg/kg Mox): 221 ± 11 mg/dL; plasma glucose level ([2]; 120 min after glucose challenge, 1 mg/kg Mox): 224 ± 14 mg/dL; effect on plasma glucose levels after oral glucose challenge (in words) ([2]; Moxonidine 1 mg/kg alone or with Eprosartan 3, 30, 100 mg/kg): significant reduction in plasma glucose levels at 60 and 90 minutes; diastolic blood pressure (DBP) [1, 3]: 118 ± 3.1 mmHg; mean blood pressure (MBP) [1, 3]: 124 ± 3.2 mmHg; systolic blood pressure (SBP) [1, 3]: 136 ± 3.6 mmHg; heart rate [1, 3]: 383 ± 5.3 beats/min; diastolic blood pressure (DBP) ([1]; 1 h after oral administration): 110 ± 3.3 mmHg; mean blood pressure (MBP) ([1]; 1 h after oral administration): 117 ± 2.6 mmHg; systolic blood pressure (SBP) ([1]; 1 h after oral administration): 130 ± 2.1 mmHg; heart rate ([1]; 1 h after oral administration): 376 ± 6.7 beats/min; diastolic blood pressure (DBP) ([1]; 2 h after oral administration): 100 ± 4.8 mmHg; mean blood pressure (MBP) ([1]; 2 h after oral administration): 107 ± 4.2 mmHg; systolic blood pressure (SBP) ([1]; 2 h after oral administration): 122 ± 3.5 mmHg; heart rate ([1]; 2 h after oral administration): 368 ± 5.9 beats/min; diastolic blood pressure (DBP) ([1]; 4 h after oral administration): 109 ± 3.8 mmHg; mean blood pressure (MBP) ([1]; 4 h after oral administration): 116 ± 3.5 mmHg; systolic blood pressure (SBP) ([1]; 4 h after oral administration): 129 ± 3.1 mmHg; heart rate ([1]; 4 h after oral administration): 384 ± 6.0 beats/min; maximal decrease in the diastolic blood pressure [1]: 19%; maximal decrease in the systolic blood pressure [1]: 16%; effect on blood pressure (in words) [1]: significantly decreased the blood pressure
